Assay results: paper PMC2928817 (PLoS Pathogens, 2010)

Assays:
[1] = target: NA of A/Osaka/180/2009 (O180r; NA H274Y) (Influenza A virus, UniProt C3W5S3, H275Y); assay type: biochemical, 2009 pandemic influenza A (H1N1) virus
[2] = target: NA of A/Vietnam/HN32060/2009 (VN32060r; NA H274Y) (Influenza A virus, UniProt C3W5S3, H275Y); assay type: biochemical, 2009 pandemic influenza A (H1N1) virus

CC(=O)N[C@H]1[C@H]([C@H](O)[C@H](O)CO)OC(C(=O)O)=C[C@@H]1N=C(N)N [Zanamivir]
IC50 value of O180r compared with O164s [1]: comparable | IC50 value of VN32060r compared with VN9727s [2]: comparable
